Assay results from patent US4348393A, “N-Aryl oxazolidinones, oxazolidinethiones, pyrrolidinones, pyrrolidines and thiazolidinones” (Delalande S.A., priority 1978, dated 1982).
Read-outs that look alike come from different tables or passages of the source.

Assays:
[1] = system: generalized trembling caused by dl-5-hydroxytryptophane; assay: Test A: potentiation in mice of generalized trembling caused by dl-5-hydroxytryptophane; type: in vivo; settings: Mus musculus, po, read-out: Test A ED 50
Experimental: Test A: Potentiation in mice of generalized trembling caused by an interperitoneal injection (200 mg/kg) of dl-5-hydroxytryptophane, following the protocol described by C. GOURET and G. RAYNAUD in J. Pharmacol. (Paris), (1974), 5, 231.

[2] = system: ptosis observed one hour after reserpine; assay: Test B: antagonism of reserpine-induced ptosis in mice; type: in vivo; settings: Mus musculus, 1 h, po, antagonism of ptosis one hour after reserpine 2 mg/kg intravenous, read-out: Test B ED 50
Experimental: Test B: Antagonism with respect to the ptosis observed one hour after an intravenous injection (2 mg/kg) of reserpine given to mice, following the protocol described by C.

[3] = mice, potentiation of trembling by dl-5-hydroxytryptophane 200 mg/kg interperitoneal

SMILES | ED50 [1, 3] [mg/kg] | ED50 [2] [mg/kg] | ED50 [1] [mg/kg]
CCOCC1CN(c2ccc(OCCC#N)cc2)C(=O)O1 (centres unmarked) [compound 147] | 1.5 | 2.6 | 
O=C(OCC1CN(c2ccc(OCC3CCCC3)cc2)C(=O)O1)c1ccccc1 (centres unmarked) [compound 20] | 8.8 | 3.7 | 
CCCOCC1CN(c2ccc(OCc3cccc([N+](=O)[O-])c3)cc2)C(=O)O1 (centres unmarked) [compound 70] | 0.8 | 0.6 | 
CC(C)CCOc1ccc(N2CC(COC(=O)C(C)C)OC2=O)cc1 (centres unmarked) [compound 127] | 5 | 4.3 | 
CC(C)(C)C(=O)OCC1CN(c2ccc(OCC3CCCC3)cc2)C(=O)O1 (centres unmarked) [compound 17] | 4.8 | 3.6 | 
O=C1OC(COC2CCCCC2)CN1c1ccc(OCc2cccc([N+](=O)[O-])c2)cc1 (centres unmarked) [compound 63] | 9.4 | 16.5 | 
CC(C)CCOc1ccc(N2CC(COC(=O)C(C)(C)C)OC2=O)cc1 (centres unmarked) [compound 125] | 5 | 3.5 | 
NCC1CN(c2ccc(OCc3ccccc3)cc2)C(=O)O1 (centres unmarked) [compound 80] | 20 | 25 | 
CCC(=O)OCC1CN(c2ccc(OCc3cccc([N+](=O)[O-])c3)cc2)C(=O)O1 (centres unmarked) [compound 37] | 1.9 | 2 | 
COCOCC1CN(c2ccc(OCc3cccc([N+](=O)[O-])c3)cc2)C(=O)O1 (centres unmarked) [compound 73] | 0.6 | 0.8 | 
CC(=O)OCC1CN(c2ccc(OCc3cccc(Cl)c3)cc2)C(=O)O1 (centres unmarked) [compound 30] | 4.2 | 4.5 | 
CC(C)CCOc1ccc(N2CC(CN)OC2=O)cc1 (centres unmarked) [compound 174] | 3 | 3.5 | 
C#CCOCC1CN(c2ccc(OCc3cccc([N+](=O)[O-])c3)cc2)C(=O)O1 (centres unmarked) [compound 72] | 0.8 | 1 | 
CC(C)C(=O)OCC1CN(c2ccc(OCCC#N)cc2)C(=O)O1 (centres unmarked) [compound 5] | 4.7 | 9.5 | 
CC(C)C(=O)OCC1CN(c2ccc(OCc3cccc(Cl)c3)cc2)C(=O)O1 (centres unmarked) [compound 32] | 4.7 | 3.6 | 
COCC1CN(c2cccc(C)c2)C(=O)O1 (centres unmarked) [compound 45] | 45 | 50 | 
CC(C)OCC1CN(c2ccc(OCc3ccccc3)cc2)C(=O)O1 (centres unmarked) [compound 58] | 50 | 8.8 | 
COCC1CN(c2ccc(OCc3ccc(F)c(C#N)c3)cc2)C(=O)O1 (centres unmarked) [compound 162] | 0.54 | 1.55 | 
COCC1CN(c2ccc(OCCCCC#N)cc2)C(=O)O1 (centres unmarked) [compound 112] | 0.1 | 0.15 | 
CC(C)COCC1CN(c2ccc(OCc3cccc([N+](=O)[O-])c3)cc2)C(=O)O1 (centres unmarked) [compound 157] | 4.7 | 6.2 | 

SMILES | ED50 [1, 3] [mg/kg] | ED50 [2] [mg/kg] | ED50 [1] [mg/kg]
CCCCOc1ccc(N2CC(COCC)OC2=O)cc1 (centres unmarked) [compound 109] | 10 | 1 | 
CCCCCCCCC(=O)OCC1CN(c2ccc(OCc3ccccc3)cc2)C(=O)O1 (centres unmarked) [compound 28] | 32 | 20 | 
CCCCC(=O)OCC1CN(c2ccc(OCCC(C)C)cc2)C(=O)O1 (centres unmarked) [compound 128] | 7.2 | 4.8 | 
CCCCC(=O)OCC1CN(c2ccc(OCc3cccc(Cl)c3)cc2)C(=O)O1 (centres unmarked) [compound 33] | 9.4 | 4.5 | 
CCC(=O)OCC1CN(c2ccc(OCC#N)cc2)C(=O)O1 (centres unmarked) [compound 2] | 12.5 | 8 | 
CC(=O)OCC1CN(c2ccc(OCC3CCCCC3)cc2)C(=S)O1 (centres unmarked) [compound 115] | 3.8 | 4.8 | 
CCCOCC1CN(c2ccc(OCC3CCCC3)cc2)C(=O)O1 (centres unmarked) [compound 143] | 12.5 | 12 | 
NCC1CN(c2ccc(OCc3cccc(Cl)c3)cc2)C(=O)O1 (centres unmarked) [compound 82] | 9.6 | 12 | 
CCCCOc1ccc(N2CC(CNC)OC2=O)cc1 (centres unmarked) [compound 74] | 4 | 6.2 | 
CN(C)CC1CN(c2ccc(OCCC#N)cc2)C(=O)O1 (centres unmarked) [compound 171] | 19.5 | 25 | 
O=C(OCC1CN(c2ccc(OCC3CCCC3)cc2)C(=O)O1)C1CCCCC1 (centres unmarked) [compound 18] | 4 | 4.25 | 
OCC1CN(c2ccc(OCC3CCCCC3)cc2)C(=S)O1 (centres unmarked) [compound 90] | 3 | 8 | 
CCCCCCCCC(=O)OCC1CN(c2ccc(OCCC(C)C)cc2)C(=O)O1 (centres unmarked) [compound 126] | 4.4 | 1.8 | 
COCC1CN(c2ccc(OCc3ccc(F)c(Cl)c3)cc2)C(=O)O1 (centres unmarked) [compound 163] | 1.15 | 8 | 
N#CCCOc1ccc(N2CC(COC(=O)c3ccccc3)OC2=O)cc1 (centres unmarked) [compound 10] | 2.4 | 5.8 | 
CCOc1ccc(N2CC(CO)OC2=S)cc1 (centres unmarked) [compound 87, para ethoxyphenyl-3 hydroxymethyl-5 oxazolidine thione-2] | 29 | 44 | 
CCC(=O)OCC1CN(c2ccc(OCc3cccc(Cl)c3)cc2)C(=O)O1 (centres unmarked) [compound 31] | 6.5 | 3.6 | 
CC(=O)OCC1CN(c2ccc(OCc3cccc([N+](=O)[O-])c3)cc2)C(=O)O1 (centres unmarked) [compound 36, Para (meta-nitrobenzyloxy) phenyl-3 acetoxy-methyl-5 oxazolidinone-2] | 1.7 | 1.5 | 
COCC1CN(c2ccc(OCc3cc(Cl)cc(Cl)c3)cc2)C(=O)O1 (centres unmarked) [compound 166] | 3.8 | 3.4 | 
CCCCOc1ccc(N2CC(COC(=O)C(C)(C)C)OC2=O)cc1 (centres unmarked) [compound 12] | 4.6 | 6 | 

SMILES | ED50 [1, 3] [mg/kg] | ED50 [2] [mg/kg] | ED50 [1] [mg/kg]
NCC1CN(c2ccc(OCc3ccc(F)cc3)cc2)C(=O)O1 (centres unmarked) [compound 176] | 4 | 4 | 
CC(C)CCOc1ccc(N2CC(COC(=O)C3CCCCC3)OC2=O)cc1 (centres unmarked) [compound 129] | 7.5 | 12 | 
COCC1CN(c2ccc(OCc3cccc(C#N)c3)cc2)C(=O)O1 (centres unmarked) [compound 65] | 0.28 | 0.75 | 
CCCCCCCCC(=O)OCC1CN(c2ccc(OCc3cccc(C#N)c3)cc2)C(=O)O1 (centres unmarked) [compound 133] | 6 | 5.2 | 
COCC1CN(c2ccc(OCc3cccc(C#N)c3)cc2)C(=S)O1 (centres unmarked) [compound 116] | 1.6 | 0.95 | 
NCC1CN(c2ccc(OCC3CCCC3)cc2)C(=O)O1 (centres unmarked) [compound 76] | 2.1 | 6.2 | 
COCC1CN(c2ccc(OCc3cc(Cl)cc([N+](=O)[O-])c3)cc2)C(=O)O1 (centres unmarked) [compound 156] | 0.47 | 0.3 | 
CN(C)CC1CN(c2ccc(OCc3cccc([N+](=O)[O-])c3)cc2)C(=O)O1 (centres unmarked) [compound 86] |  | 4.8 | 4.5
CCCCOc1ccc(N2CC(COC3CCCCC3)OC2=O)cc1 (centres unmarked) [compound 48] | 50 | 50 | 
COCC1CN(c2ccc(OCC3CCOCC3)cc2)C(=O)O1 (centres unmarked) [compound 144] | 2.2 | 1.1 | 
O=C1OC(COC2CCCCC2)CN1c1ccc(OCC2CCCC2)cc1 (centres unmarked) [compound 51] | 27 | 50 | 
COCC1CN(c2ccc(OCc3ccc(Cl)c(Cl)c3)cc2)C(=O)O1 (centres unmarked) [compound 164] | 3.4 | 3.4 | 
CNCC1CN(c2ccc(OCc3ccc(F)cc3)cc2)C(=O)O1 (centres unmarked) [compound 175] | 5.8 | 9.6 | 
CCOCC1CN(c2ccc(OCc3ccccc3)cc2)C(=O)O1 (centres unmarked) [compound 154] | 19 | 17.5 | 
CC(C)OCC1CN(c2ccc(OCC3CCCC3)cc2)C(=O)O1 (centres unmarked) [compound 50] | 17.5 | 15 | 
COCC1CN(c2ccc(/C=C\c3cccc([N+](=O)[O-])c3)cc2)C(=O)O1 (centres unmarked) [compound 194] | 6.4 | 5.8 | 
CC(C)CCOCC1CN(c2ccc(OCc3cccc([N+](=O)[O-])c3)cc2)C(=O)O1 (centres unmarked) [compound 158] | 6 | 6 | 
CC(C)(C)C(=O)OCC1CN(c2ccc(OCc3ccccc3)cc2)C(=O)O1 (centres unmarked) [compound 27] | 25 | 44 | 
